Results published in patent US20100093760A1, “METHODS FOR IDENTIFYING COMPOUNDS THAT MODULATE CELL SIGNALING AND METHODS EMPLOYING SUCH COMPOUNDS” (The General Hospital Corporation, priority 2006, published 2010).
Entries after “also recorded” stand apart in the source; their conditions may differ.

Columns and labels:
hepcidin promoter = assay: Hepcidin promoter luciferase reporter assay (Hep-Luc) in Hep3B cells; assay type: cell-based
Procedure: Murine PASMCs grown to 50% confluence in 6-well plates were transiently transfected with 0.3 μg Id1 promoter luciferase reporter construct (BRE-Luc, Dr. Peter ten Dijke, Leiden University Medical Center, Netherlands (Korchynskyi et al., J. Biol. Chem. 277:4883-4891, 2002)) in combination with 0.6 μg plasmids expressing constitutively-active forms of BMP type I receptors (caALK2, caALK3, or caALK6, kindly provided by Dr. Kohei Miyazono, University of Tokyo, Japan (Fujii et al., Mol. Biol. Cell 10:3801-3813, 1999)), using Fugene6 (Roche). To assess Activin and […] type I receptor function, PASMCs were transiently transfected with 0.3 μg PAI-1 promoter luciferase reporter construct (CAGA-Luc, Dr. Peter ten Dijke (Dennler et al., Embo J. 17:3091-3100, 1998)) in combination with 0.6 μg plasmids expressing constitutively active forms of type I receptors (caALK4, caALK5, and caALK7, also provided by Dr. Kohei Miyazono (Okadome et al., J. Biol. Chem. 271:21687-21690, 1996; Shimizu et al., Genes Cells 3:125-134, 1998)). For both reporters, 0.2 μg pRL-TK Renilla luciferase (Promega) was used to control for transfection efficiency. […] Cell extracts were harvested, and relative promoter activity quantitated by the ratio of firefly to Renilla luciferase activity using the dual luciferase assay kit (Promega). […] Hepcidin promoter activity was measured by luciferase assay as above.

hepcidin (HAMP) mRNA = assay: Hepcidin mRNA qRT-PCR in HepG2 cells; assay type: cell-based, human; conditions: 10 μM in combination with BMP2
Procedure: Quantitative RT-PCR was performed for mRNA encoding Id1 or human hepcidin (HAMP) as previously described (Babitt et al., Nat. Genet. 38:531-539, 2006; Yu et al., J. Biol. Chem. 280:24443-24450, 2005), and normalized to 18S ribosomal RNA (rRNA) or β-actin mRNA levels.

[1] = mice, 10 to 30 mg/kg each day (Kim et al. 2004); cited from earlier work

With `c1cc(-c2cnn3cc(-c4ccc(OCCN5CCCCC5)cc4)cnc23)ccn1` [Compound C/Dorsomorphin] the “effect on HJV-induced hepcidin promoter activity (Hep-Luc)” value (hepcidin promoter; Hep3B cells transfected with HJV) was “effectively abrogated; also recorded: blocked”, the “effect on BMP2-induced hepcidin promoter activity (Hep-Luc)” value (hepcidin promoter; Hep3B cells, 10 μM, BMP2 25 ng/ml) was “effectively abrogated” and the “hepcidin mRNA with BMP2 co-treatment” value (hepcidin (HAMP) mRNA) was “abolished; also recorded: below the basal level”. For the same compound, the tolerability [1] was “without obvious toxicity”.
